Experimental data taken from patent EP0085843A1, “Antimycosic agent” (BAYER AG, priority 1982, dated 1983).

Key:
[1] = system: Candida; assay: Antifungal in-vivo activity (oral) in mouse candidosis; set-up: species or system Mäuse vom Typ SPF-CF1; key to Wirkung (Ueberlebende am 6.Tag p.i.): +++++: = sehr gute Wirkung = 90 % Ueberlebende am 6.Tag p.i.; ++++: = gute Wirkung = 80 % Ueberlebende am 6.Tag p.i.; +++: = Wirkung = 60 % Ueberlebende am 6.Tag p.i.; ++: = schwache Wirkung = 40 % Ueberlebende am 6.Tag p.i.; +: = Spur Wirkung = unter 40% " " " "; k.W.: = keine Wirkung; settings: for Wirkung (Ueberlebende am 6.Tag p.i.): 50 - 100 mg/kg one hour before and seven hours after i.v. infection; for Wirkung compared with known compounds (A), (B), (C), (D): mouse candidosis
Description: Mäuse vom Typ SPF-CF1 wurden intravenös mit 1 - 2 x 10^6 logarithmisch wachsenden Candida-Zellen, die in physiologischer Kochsalzlösung suspendiert werden, infiziert. Eine Stunde vor und sieben Stunden nach der Infektion werden die Tiere mit jeweils 50 - 100 mg/kg Körpergewicht der Präparate oral behandelt.
Unbehandelte Tiere starben 3 bis 6 Tage post infektionem. Die Ueberlebensrate am 6.Tag post infektionem betrug bei unbehandelten Kontrolltieren etwa 5 %.

[2] = system: Trichophyton mentagrophytes; assay: In-vivo activity (local) in experimental guinea pig trichophytosis; set-up: species or system Meerschweinchen; key to Wirkung (Infektionszeichen): +++++: sehr gute Wirkung = keine Infektionszeichen am 12.-15.Tag p.i.; ++++: gute Wirkung = geringe Rötung, vereinzelt Schuppen; +++: Wirkung = Rötung, Schuppung, ohne Haarausfall; ++: schwache Wirkung = Rötung, Schuppung, Haarausfall; +: Spur Wirkung = flächiger Haarausfall, entzündliche Hautreaktion; settings: for Wirkung (Infektionszeichen): 1x daily from day 3 p.i., 15%-ige Lösung in Dimethylsulfoxid : Glycerin = 1 : 4; for Wirkung: trichophytosis model
[3] = system: Dermatophyten, Schimmelpilze, Hefen; assay: Antifungal in-vitro activity, serial dilution test, overall statement; type: cell-based
Description: Versuchsbeschreibung: • Die in-vitro-Prüfungen wurden im Reihenverdünnungstest mit Keiminokula von durchschnittlich 5 x 10^4 Keimen/ml Substrat durchgeführt. Als Nährmedium dienten • a) für Dermatophyten und Schimmelpilze: Sabouraud's milieu d'epreuve • b) für Hefen: • Fleischextrakt-Traubenzucker-Bouillon.
Die Bebrütungstemperatur betrug 20°C, die Bebrütungsdauer lag bei 24 bis 96 Stunden bei Hefen und 96 Stunden bei Dermatophyten und Schimmelpilzen.

| Compound | Wirkung (Ueberlebende am 6.Tag p.i.) [1] | Wirkung compared with known compounds (A), (B), (C), (D) [1] | Wirkung (Infektionszeichen) [2] | Wirkung [2] | antimykotische Wirkung compared with known compounds (A), (B), (C), (D) [3] |
| --- | --- | --- | --- | --- | --- |
| Cc1ccc(OCC(O)(Cn2cncn2)C(C)(C)C)cc1 (centres unmarked) [(A), reference compound] | k.W. |  |  |  |  |
| Cc1cc(Cl)ccc1OCC(O)(Cn1cncn1)C(C)(C)C (centres unmarked) [(C), reference compound] | k.W. |  |  |  |  |
| COC(COc1ccc(Cl)cc1C)(Cn1cncn1)C(C)(C)C (centres unmarked) [Beispiel 1, 2-(4-Chlor-2-methyl-phenoxymethyl)-3,3-dimethyl-2-methoxy-1-(1,2,4-triazol-1-yl)-butan] | +++ (= Wirkung = 60 % Ueberlebende am 6.Tag p.i.) | bessere Wirkung | ++++ | gute Wirkung | bessere antimykotische Wirkung |
| COC(COc1ccc(Cl)cc1)(Cn1cncn1)C(C)(C)C (centres unmarked) [Beispiel 2] | ++++ (= gute Wirkung = 80 % Ueberlebende am 6.Tag p.i.) | bessere Wirkung | ++++ | gute Wirkung |  |
| COC(COc1ccc(Cl)cc1Cl)(Cn1cncn1)C(C)(C)C (centres unmarked) [Beispiel 3] | +++ (= Wirkung = 60 % Ueberlebende am 6.Tag p.i.) | bessere Wirkung | ++++ | gute Wirkung | bessere antimykotische Wirkung |
| COC(CCc1ccc(Cl)cc1)(Cn1cncn1)C(C)(C)C (centres unmarked) [Beispiel 4] | +++++ (= sehr gute Wirkung = 90 % Ueberlebende am 6.Tag p.i.) | bessere Wirkung | ++++ | gute Wirkung | bessere antimykotische Wirkung |
| COC(CCc1ccc(F)cc1)(Cn1cncn1)C(C)(C)C (centres unmarked) [Beispiel 5] | ++++ (= gute Wirkung = 80 % Ueberlebende am 6.Tag p.i.) | bessere Wirkung | ++++ | gute Wirkung | bessere antimykotische Wirkung |
